The source of these data is ChEMBL document CHEMBL2440023, “Biological activity of 3-chloro-azetidin-2-one derivatives having interesting antiproliferative activity on human breast cancer cell lines” (Bioorg Med Chem Lett, 2013).

SMILES strings stand for the structures. Calls of active or inactive are those of the source. No cut-off for these calls is given here.

As a reminder, the IC50 is the concentration that gives 50% inhibition.

The subject of one data set is NIH3T3. Kind of data set: Cytotoxicity against mouse 3T3 cells assessed as cell viability at 5 to 20 uM after 72 hrs by MTT assay. It counts as cell-based. Particulars: nih3t3, 72 h.
Data set [1] relates to MCF7. Briefly: Cytotoxicity against ER-positive human MCF7 cells assessed as growth inhibition after 72 hrs by MTT assay. It counts as functional, cell-based. Particulars: for IC50: MCF7, 72 h. (Formazan colour is commonly taken as a measure of viable cells.)
Data set [2] is described as follows: Stability of the compound in simulated gastric/intestinal fluid assessed as compound remaining at 10 mM after 6 hrs by UV/Vis spectroscopic analysis in presence of porcine pepsin and pancreatin relative to control. Type of data set: physicochemical. Particulars: pig; read-out: Stability.
Data set [3] concerns SK-BR-3. Kind of data set: Cytotoxicity against ER-negative human SKBR3 cells assessed as growth inhibition after 72 hrs by MTT assay. Type of data set: functional, cell-based. Particulars: for IC50: SK-BR-3, 72 h.
Data set [4] has as its system SK-BR-3. Kind of data set: Cytotoxicity against ER-negative human SKBR3 cells assessed as growth inhibition at 10 to 20 uM after 72 hrs by MTT assay. It counts as functional, cell-based.
The subject of data set [5] is MCF7. Kind of data set: Cytotoxicity against ER-positive human MCF7 cells assessed as growth inhibition at 1 uM after 72 hrs by MTT assay. Type of data set: functional, cell-based.
Data set [6] deals with MCF7. Kind of data set: Cytotoxicity against ER-positive human MCF7 cells assessed as growth inhibition at 20 uM after 72 hrs by MTT assay. It counts as functional, cell-based.
Data set [7] relates to MCF7. Kind of data set: Cytotoxicity against ER-positive human MCF7 cells assessed as growth inhibition at 10 to 20 uM after 72 hrs by MTT assay. It counts as functional, cell-based.
Data set [8] relates to SK-BR-3. Kind of data set: Cytotoxicity against ER-negative human SKBR3 cells assessed as growth inhibition at 20 uM after 72 hrs by MTT assay. It counts as functional, cell-based.

Turning to `O=C1C(Cl)C(c2ccc(Cl)cc2)N1c1ccc(I)cc1` (stereo unspecified), the Activity entry with NIH3T3 is “Non-toxic”. For the same compound, the “growth inhibition (GI)” value in the data set with MCF7 [1] and in the data set on SK-BR-3 [3] was “Dose-dependent effect” in each case. Moreover, the results for the IC50 with MCF7 [1] and with SK-BR-3 [3] were 11.8 µM and 9.51 µM, respectively. Moreover, the remaining at 6 h, 10000 µM in data set [2] is 70%.

Consider `O=C1C(Cl)C(c2ccc(Br)cc2)N1c1ccc(Br)cc1` (stereo unspecified), for which the Activity result with NIH3T3 is “Non-toxic”. For the same compound, in the data set on MCF7 [1], the “growth inhibition (GI)” value was “Dose-dependent effect” and the half-inhibitory concentration (IC50) amounted to 16.7 µM. In addition, the remaining at 6 h, 10000 µM in data set [2] is 87%. Besides, in the data set on SK-BR-3 [3], the “growth inhibition (GI)” value is “Dose-dependent effect” and the half-maximal inhibitory concentration (IC50) was determined as 11.1 µM.

For the compound `O=C1C(Cl)C(c2ccccc2)N1c1ccccc1` (stereo unspecified), the Activity result in the data set with NIH3T3 is listed as “Non-toxic”. Further, in data set [2], the remaining at 6 h, 10000 µM is 78%. Also, the “growth inhibition (GI)” value in the data set with SK-BR-3 [4] is “Active”. Also, the “growth inhibition (GI)” value in the data set with MCF7 [5] is “inactive”.

As for `O=C1C(Cl)C(c2ccc(Cl)cc2)N1c1ccccc1` (stereo unspecified), the “growth inhibition (GI)” value in the data set on MCF7 [6] and in the data set on SK-BR-3 [4] was “Active” each time. In addition, the Activity result in the data set on NIH3T3 is “Non-toxic”. In addition, the remaining at 6 h, 10000 µM in data set [2] is 83%.

In the case of `Oc1ccc(/C=C\c2cc(O)cc(O)c2)cc1` [CIS-RESVERATROL], the IC50 was found to be 28.4 µM in the data set on MCF7 [1] and 41.2 µM in the data set on SK-BR-3 [3]. The remaining at 6 h, 10000 µM in data set [2] was 31%.

As to `O=C1C(Cl)C(c2ccccc2)N1c1ccc(Cl)cc1` (stereo unspecified), the Activity entry in the data set on NIH3T3 is reported as “Non-toxic”. Also, the “growth inhibition (GI)” value in the data set with MCF7 [1] is “Dose-dependent effect”. The remaining at 6 h, 10000 µM in data set [2] is 80%. Moreover, the “growth inhibition (GI)” value in the data set on SK-BR-3 [4] is “Active”.

Regarding `Cc1ccc(C2C(Cl)C(=O)N2c2ccc(C)cc2)cc1` (stereo unspecified), in the data set on NIH3T3, the Activity result is “Non-toxic”. In the data set on MCF7 [7], the “growth inhibition (GI)” value is “inactive”. Further, the remaining at 6 h, 10000 µM in data set [2] is 79%. Further, the “growth inhibition (GI)” value with SK-BR-3 [8] was “Active”.
